Data as given in patent US20200282008A1, “COMPOSITIONS AND METHODS FOR LONG TERM RELEASE OF GONADOTROPIN-RELEASING HORMONE (GnRH) ANTAGONISTS” (VERU INC., priority 2017, published 2020).
Non-standard residues stand in square brackets, D forms with d. Residues, ends and D or L forms follow the SMILES beside them. dPhe(4-Cl) = N[C@H](Cc1ccc(Cl)cc1)C(=O)O; d2Nal = N[C@H](Cc1ccc2ccccc2c1)C(=O)O; dCit = NC(=O)NCCC[C@@H](N)C(=O)O; d3Pal = N[C@H](Cc1cccnc1)C(=O)O

Test system: serum testosterone
Assay: Second rat study: serum testosterone after cetrorelix PLGA formulations
Format: in vivo, rats
Method: In a second rat study serum testosterone and cetrorelix levels were measured over 12 weeks. […] The formulations found within Table 13 were injected in rats and then the testosterone was measured at 0, 1, 2, 8 and 24 hours and then daily until the end of the first week and then biweekly until week 4 and then weekly thereafter.
FIG. 21 compares the data from the 2nd rat and 1st dog study results for testosterone levels.

CC(=O)N[C@H](Cc1ccc2ccccc2c1)C(=O)N[C@H](Cc1ccc(Cl)cc1)C(=O)N[C@H](Cc1cccnc1)C(=O)N[C@@H](CO)C(=O)N[C@@H](Cc1ccc(O)cc1)C(=O)N[C@H](CCCNC(N)=O)C(=O)N[C@@H](CC(C)C)C(=O)N[C@@H](CCCNC(=N)N)C(=O)N1CCC[C@H]1C(=O)N[C@H](C)C(N)=O [cetrorelix] (Ac-[d2Nal][dPhe(4-Cl)][d3Pal]SY[dCit]LRP[dA]-NH2)
cetrorelix level required to inhibit testosterone production: 2 ng/mL
